Experimental data published in ChEMBL document CHEMBL5465560, “Selectivity Literature for EUbOPEN Chemogenomic Library” (2024).

What was measured:
[1] = biological target: Serine/threonine-protein kinase NLK (Homo sapiens, UniProt Q9UBE8); experiment: Selectivity interaction (Competition-binding assay (DiscoverX)) EUB0000229b NLK
[2] = biological target: T1, Homeodomain-interacting protein kinase 4 (Homo sapiens) (UniProt Q8NE63); experiment: Selectivity interaction (KinomeScan (DiscoverX)) EUB0001079a HIPK4; conditions: at 1 µM
T1 sequence (whole entry): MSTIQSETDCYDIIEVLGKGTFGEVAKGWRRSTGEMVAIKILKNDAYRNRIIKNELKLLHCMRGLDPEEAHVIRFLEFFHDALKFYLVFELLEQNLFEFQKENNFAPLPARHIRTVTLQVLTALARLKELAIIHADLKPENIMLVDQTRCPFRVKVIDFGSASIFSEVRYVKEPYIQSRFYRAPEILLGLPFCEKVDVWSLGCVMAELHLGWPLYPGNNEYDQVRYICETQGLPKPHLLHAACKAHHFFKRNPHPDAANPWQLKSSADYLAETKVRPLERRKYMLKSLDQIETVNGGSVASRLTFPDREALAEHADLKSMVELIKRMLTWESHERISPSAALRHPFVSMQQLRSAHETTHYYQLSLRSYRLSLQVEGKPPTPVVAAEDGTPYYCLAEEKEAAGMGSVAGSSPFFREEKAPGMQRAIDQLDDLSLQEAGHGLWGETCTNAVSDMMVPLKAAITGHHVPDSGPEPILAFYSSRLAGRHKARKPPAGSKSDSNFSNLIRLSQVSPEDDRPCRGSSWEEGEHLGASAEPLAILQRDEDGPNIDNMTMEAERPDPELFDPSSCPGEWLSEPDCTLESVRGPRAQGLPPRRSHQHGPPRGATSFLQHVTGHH

[3] = biological target: T2, Dual specificity mitogen-activated protein kinase kinase 4 (Homo sapiens) (UniProt P45985); experiment: Selectivity interaction (Kinase panel (DSF assay)) EUB0001558a MAP2K4
T2 sequence (whole entry): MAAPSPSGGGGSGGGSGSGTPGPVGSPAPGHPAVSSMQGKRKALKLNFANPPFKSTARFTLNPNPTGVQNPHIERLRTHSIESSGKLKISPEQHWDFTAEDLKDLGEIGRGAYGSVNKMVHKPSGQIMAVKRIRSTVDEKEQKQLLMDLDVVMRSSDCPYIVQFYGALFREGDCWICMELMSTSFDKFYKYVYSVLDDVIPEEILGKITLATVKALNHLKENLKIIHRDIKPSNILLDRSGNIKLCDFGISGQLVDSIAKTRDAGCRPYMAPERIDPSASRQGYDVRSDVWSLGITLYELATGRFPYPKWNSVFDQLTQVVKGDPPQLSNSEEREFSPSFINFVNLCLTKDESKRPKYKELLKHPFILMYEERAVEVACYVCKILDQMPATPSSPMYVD

[4] = Selectivity interaction (Kinase panel (Enzyme activity assay)) EUB0000612a IGF1
[5] = biological target: T3, Phosphatidylinositol 3-kinase C2 domain-containing subunit gamma (Homo sapiens) (UniProt O75747); experiment: Selectivity interaction (KinomeScan (DiscoverX)) EUB0000607a PIK3C2G; conditions: at 10 µM
T3 sequence (whole entry): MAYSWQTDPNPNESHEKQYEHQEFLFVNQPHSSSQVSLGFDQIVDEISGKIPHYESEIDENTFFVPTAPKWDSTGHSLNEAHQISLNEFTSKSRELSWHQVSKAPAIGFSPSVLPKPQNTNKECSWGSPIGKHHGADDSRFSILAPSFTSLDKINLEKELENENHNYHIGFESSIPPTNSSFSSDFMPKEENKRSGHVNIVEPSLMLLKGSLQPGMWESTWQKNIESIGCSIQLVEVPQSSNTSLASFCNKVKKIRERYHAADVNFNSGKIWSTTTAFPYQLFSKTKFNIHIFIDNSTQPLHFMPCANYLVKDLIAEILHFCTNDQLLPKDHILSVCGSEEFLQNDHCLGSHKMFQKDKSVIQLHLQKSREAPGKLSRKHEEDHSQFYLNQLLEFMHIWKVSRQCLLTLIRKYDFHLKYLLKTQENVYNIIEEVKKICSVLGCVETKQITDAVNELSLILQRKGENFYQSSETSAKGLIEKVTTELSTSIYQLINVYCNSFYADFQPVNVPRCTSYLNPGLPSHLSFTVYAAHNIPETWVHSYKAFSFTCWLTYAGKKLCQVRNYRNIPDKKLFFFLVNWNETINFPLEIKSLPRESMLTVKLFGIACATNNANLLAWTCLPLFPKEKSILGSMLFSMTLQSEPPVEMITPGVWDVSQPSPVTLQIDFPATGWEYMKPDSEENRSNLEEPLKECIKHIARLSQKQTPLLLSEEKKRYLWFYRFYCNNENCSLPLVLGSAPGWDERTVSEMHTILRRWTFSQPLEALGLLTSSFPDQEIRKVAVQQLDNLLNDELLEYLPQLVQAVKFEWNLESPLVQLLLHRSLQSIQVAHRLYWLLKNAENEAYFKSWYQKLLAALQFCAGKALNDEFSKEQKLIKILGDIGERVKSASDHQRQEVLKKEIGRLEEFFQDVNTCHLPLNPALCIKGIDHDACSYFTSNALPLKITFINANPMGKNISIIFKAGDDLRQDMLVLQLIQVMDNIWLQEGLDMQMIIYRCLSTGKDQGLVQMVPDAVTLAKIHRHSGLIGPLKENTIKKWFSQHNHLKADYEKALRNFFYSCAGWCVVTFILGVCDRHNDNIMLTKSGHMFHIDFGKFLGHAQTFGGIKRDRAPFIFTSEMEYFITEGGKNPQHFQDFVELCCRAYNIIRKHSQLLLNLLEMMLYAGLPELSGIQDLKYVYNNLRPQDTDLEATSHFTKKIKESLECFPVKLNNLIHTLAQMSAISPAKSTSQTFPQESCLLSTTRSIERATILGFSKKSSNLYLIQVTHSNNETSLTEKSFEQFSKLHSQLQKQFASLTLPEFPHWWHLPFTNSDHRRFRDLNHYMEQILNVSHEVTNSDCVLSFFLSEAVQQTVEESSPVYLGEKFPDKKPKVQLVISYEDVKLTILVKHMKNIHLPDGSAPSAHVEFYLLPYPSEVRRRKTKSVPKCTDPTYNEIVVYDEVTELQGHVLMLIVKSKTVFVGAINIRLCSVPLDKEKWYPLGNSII

Sequence of Serine/threonine-protein kinase NLK (Q9UBE8 whole entry): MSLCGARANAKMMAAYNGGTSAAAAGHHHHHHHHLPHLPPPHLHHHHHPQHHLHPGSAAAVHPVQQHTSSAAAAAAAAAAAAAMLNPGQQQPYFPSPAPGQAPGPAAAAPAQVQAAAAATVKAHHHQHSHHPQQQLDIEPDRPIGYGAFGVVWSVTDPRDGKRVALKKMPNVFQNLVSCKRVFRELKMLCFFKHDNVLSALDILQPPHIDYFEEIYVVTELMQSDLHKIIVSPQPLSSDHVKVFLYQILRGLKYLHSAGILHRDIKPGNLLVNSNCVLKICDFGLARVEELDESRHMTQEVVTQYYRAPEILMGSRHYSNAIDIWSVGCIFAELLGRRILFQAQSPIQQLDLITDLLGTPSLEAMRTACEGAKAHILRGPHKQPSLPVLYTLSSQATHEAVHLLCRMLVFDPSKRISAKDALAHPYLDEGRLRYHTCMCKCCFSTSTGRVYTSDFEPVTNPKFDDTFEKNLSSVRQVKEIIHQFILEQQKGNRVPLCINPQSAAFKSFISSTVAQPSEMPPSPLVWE

COc1cc(N(C)c2ccnc3ccc(C(F)(F)F)cc23)cc(OC)c1OC
Kd [1]: 6.5 µM

Nc1cnc(N2CCc3cc(S(=O)(=O)Nc4c(F)cc(Cl)cc4F)cc(N4CCCC4=O)c32)nc1 [TP-020n]
% of control [2]: 100%

CC(C)(O)[C@H](F)CN1Cc2cc(NC(=O)c3cnn4cccnc34)c(N3CCOCC3)cc2C1=O
dTM [3]: 0.9 K

CCc1cccc(CC)c1NC(=O)c1nn(C)c2c1CCc1cnc(Nc3ccc(C(=O)NC4CCN(C)CC4)cc3OC(F)(F)F)nc1-2
IC50 [4]: > 10 µM

CNC(=O)Nc1ccc(-c2nc(N3CC4CCC(C3)O4)c3cnn(C4CCC5(CC4)OCCO5)c3n2)cc1
% of control [5]: 22%
